From patent US6737383B1, “Herbicidal oxadiazolidines” (priority 1999, dated 2004)

Tests used:
bedstraw = assay: Test B pre/postemergence bedstraw; assay type: in vivo, Galium aparine; conditions: Preemergence
In short: (§1)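 Response is a visual 0-to-10 score relative to untreated plants, where 0 means no effect and 10 means complete control, taken twelve to sixteen days after application. Treatments went onto soil at planting and onto foliage of 1- to 4-leaf plants, using a surfactant-containing non-phytotoxic solvent.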

blackgrass = assay: Test B pre/postemergence blackgrass; assay type: in vivo, Alopecurus myosuroides
In short: as §1

surinam grass = assay: Test B pre/postemergence surinam grass; assay type: in vivo, Brachiaria decumbens
In short: as §1

cocklebur = assay: Test B pre/postemergence cocklebur; assay type: in vivo, Xanthium strumarium
In short: as §1

corn = assay: Test B pre/postemergence corn; assay type: in vivo, Zea mays
In short: as §1

crabgrass = assay: Test B pre/postemergence crabgrass; assay type: in vivo, Digitaria sanguinalis
In short: as §1

giant foxtail = assay: Test B pre/postemergence giant foxtail; assay type: in vivo, Setaria faberii
In short: as §1

morningglory = assay: Test B pre/postemergence morningglory; assay type: in vivo, Ipomoea hederacea
In short: as §1

pigweed = assay: Test B pre/postemergence pigweed; assay type: in vivo, Amaranthus retroflexus
In short: as §1

rape = assay: Test B pre/postemergence rape; assay type: in vivo, Brassica napus
In short: as §1

soybean = assay: Test B pre/postemergence soybean; assay type: in vivo, Glycine max
In short: as §1

sugar beet = assay: Test B pre/postemergence sugar beet; assay type: in vivo, Beta vulgaris
In short: as §1

velvetleaf = assay: Test B pre/postemergence velvetleaf; assay type: in vivo, Abutilon theophrasti
In short: as §1

wheat = assay: Test B pre/postemergence wheat; assay type: in vivo, Triticum aestivum
In short: as §1

wild oat = assay: Test B pre/postemergence wild oat; assay type: in vivo, Avena fatua
In short: as §1

purple nutsedge = assay: Test B pre/postemergence purple nutsedge; assay type: in vivo, Cyperus rotundus
In short: as §1

[1] = Postemergence, Rate 62 g/ha, scale of 0 to 10, 0 is no effect, 10 is complete control
[2] = Postemergence, Rate 125 g/ha, scale 0 to 10, 0 is no effect, 10 is complete control
[3] = Postemergence, Rate 500 g/ha, scale 0 to 10, 0 is no effect, 10 is complete control
[4] = Preemergence, Rate 62 g/ha, scale 0 to 10 (0 no effect, 10 complete control)
[5] = Preemergence, Rate 125 g/ha, scale 0 to 10, 0 is no effect, 10 is complete control
[6] = Rate 250 g/ha, Postemergence, scale of 0 to 10 where 0 is no effect and 10 is complete control
[7] = Preemergence, Rate 500 g/ha, scale of 0 to 10 where 0 is no effect and 10 is complete control

CCOCn1c(=O)on(C(=O)N(c2ccc(Cl)cc2)C(C)C)c1=O [Compound 534]
Bedstraw plant response rating (bedstraw; Rate 62 g/ha, scale 0 to 10 (0 no effect, 10 complete control)): 0
Bedstraw plant response rating (bedstraw; Rate 125 g/ha, scale 0 to 10, 0 is no effect, 10 is complete control): 0
Bedstraw plant response rating (0 to 10 scale) (bedstraw; Rate 250 g/ha): 0
Blackgrass plant response rating (blackgrass; [1]): 0
Blackgrass plant response rating (blackgrass; [2]): 2
Plant response rating, Blackgrass (blackgrass; [3]): 7
Blackgrass plant response rating (blackgrass; [4]): 8
Blackgrass plant response rating (blackgrass; [5]): 9
Blackgrass plant response rating (0 to 10 scale) (blackgrass; Preemergence, Rate 250 g/ha): 9
Plant response rating, Blackgrass (blackgrass; [6]): 7
B. signalgrass plant response rating (surinam grass; [1]): 0
B. signalgrass plant response rating (surinam grass; [2]): 0
Plant response rating, B. signalgrass (surinam grass; [3]): 6
B. signalgrass plant response rating (surinam grass; [4]): 9
B. signalgrass plant response rating (surinam grass; [5]): 9
B. signalgrass plant response rating (0 to 10 scale, 0 is no effect, 10 is complete control) (surinam grass; Preemergence, Rate 250 g/ha): 9
Plant response rating, B. signalgrass (surinam grass; [6]): 0
Cocklebur plant response rating (cocklebur; [1]): 0
Cocklebur plant response rating (cocklebur; [2]): 0
Plant response rating, Cocklebur (cocklebur; [3]): 0
Cocklebur plant response rating (cocklebur; [4]): 0
Cocklebur plant response rating (cocklebur; [5]): 0
Cocklebur plant response rating (0 to 10 scale) (cocklebur; Preemergence, Rate 250 g/ha): 0
Cocklebur plant response rating (cocklebur; [7]): 0
Plant response rating, Cocklebur (cocklebur; [6]): 0
Corn plant response rating (corn; [1]): 0
Corn plant response rating (corn; [2]): 0
Plant response rating, Corn (corn; [3]): 0
Corn plant response rating (corn; [4]): 0
Corn plant response rating (corn; [5]): 0
Corn plant response rating (0 to 10 scale) (corn; Preemergence, Rate 250 g/ha): 3
Corn plant response rating (corn; [7]): 3
Plant response rating, Corn (corn; [6]): 0
Crabgrass plant response rating (crabgrass; [2]): 5
Plant response rating, Crabgrass (crabgrass; [3]): 8
Crabgrass plant response rating (crabgrass; [4]): 9
Crabgrass plant response rating (crabgrass; [5]): 10
Crabgrass plant response rating (0 to 10 scale) (crabgrass; Preemergence, Rate 250 g/ha): 10
Crabgrass plant response rating (crabgrass; [7]): 10
Plant response rating, Crabgrass (crabgrass; [6]): 4
Giant foxtail plant response rating (giant foxtail; [2]): 3
Plant response rating, Giant foxtail (giant foxtail; [3]): 8
Giant foxtail plant response rating (giant foxtail; [4]): 9
Giant foxtail plant response rating (giant foxtail; [5]): 9
Giant foxtail plant response rating (0 to 10 scale) (giant foxtail; Preemergence, Rate 250 g/ha): 10
Giant foxtail plant response rating (giant foxtail; [7]): 10
Plant response rating, Giant foxtail (giant foxtail; [6]): 4
Morningglory plant response rating (morningglory; [1]): 2
Morningglory plant response rating (morningglory; [2]): 2
Plant response rating, Morningglory (morningglory; [3]): 3
Morningglory plant response rating (morningglory; [4]): 0
Morningglory plant response rating (morningglory; [5]): 0
Morningglory plant response rating (0 to 10 scale) (morningglory; Preemergence, Rate 250 g/ha): 2
Morningglory plant response rating (morningglory; [7]): 0
Plant response rating, Morningglory (morningglory; [6]): 2
Redroot pigweed plant response rating (pigweed; [1]): 0
Redroot pigweed plant response rating (pigweed; [2]): 3
Plant response rating, Redroot pigweed (pigweed; [3]): 7
Redroot pigweed plant response rating (pigweed; [4]): 0
Redroot pigweed plant response rating (pigweed; [5]): 0
Redroot pigweed plant response rating (0 to 10 scale) (pigweed; Preemergence, Rate 250 g/ha): 0
Plant response rating, Redroot pigweed (pigweed; [6]): 3
Rape plant response rating (rape; [1]): 0
Rape plant response rating (rape; [2]): 0
Plant response rating, Rape (rape; [3]): 7
Rape plant response rating (rape; [4]): 2
Rape plant response rating (rape; [5]): 6
Rape plant response rating (0 to 10 scale) (rape; Preemergence, Rate 250 g/ha): 6
Plant response rating, Rape (rape; [6]): 0
Soybean plant response rating (soybean; [2]): 4
Plant response rating, Soybean (soybean; [3]): 7
Soybean plant response rating (soybean; [4]): 0
Soybean plant response rating (soybean; [5]): 0
Soybean plant response rating (0 to 10 scale) (soybean; Preemergence, Rate 250 g/ha): 0
Plant response rating, Soybean (soybean; [6]): 6
Sugarbeets plant response rating (sugar beet; [1]): 0
Sugarbeets plant response rating (sugar beet; [2]): 0
Plant response rating, Sugarbeets (sugar beet; [3]): 2
Sugarbeets plant response rating (sugar beet; [4]): 3
Sugarbeets plant response rating (sugar beet; [5]): 4
Sugarbeets plant response rating (0 to 10 scale) (sugar beet; Preemergence, Rate 250 g/ha): 6
Plant response rating, Sugarbeets (sugar beet; [6]): 3
Velvetleaf plant response rating (velvetleaf; [1]): 0
Velvetleaf plant response rating (velvetleaf; [2]): 2
Plant response rating, Velvetleaf (velvetleaf; [3]): 2
Velvetleaf plant response rating (velvetleaf; [4]): 0
Velvetleaf plant response rating (velvetleaf; [5]): 2
Velvetleaf plant response rating (0 to 10 scale) (velvetleaf; Preemergence, Rate 250 g/ha): 2
Velvetleaf plant response rating (velvetleaf; [7]): 3
Plant response rating, Velvetleaf (velvetleaf; [6]): 2
Wheat plant response rating (wheat; [1]): 0
Wheat plant response rating (wheat; [2]): 0
Plant response rating, Wheat (wheat; [3]): 5
Wheat plant response rating (wheat; [4]): 0
Wheat plant response rating (wheat; [5]): 0
Wheat plant response rating (0 to 10 scale) (wheat; Preemergence, Rate 250 g/ha): 3
Plant response rating, Wheat (wheat; [6]): 3
Wild oats plant response rating (wild oat; [1]): 0
Wild oats plant response rating (wild oat; [2]): 0
Plant response rating, Wild oats (wild oat; [3]): 3
Wild oats plant response rating (wild oat; [4]): 3
Wild oats plant response rating (wild oat; [5]): 8
Wild oats plant response rating (0 to 10 scale) (wild oat; Preemergence, Rate 250 g/ha): 9
Plant response rating, Wild oats (wild oat; [6]): 0
Nutsedge plant response rating (purple nutsedge; [1]): 0
Nutsedge plant response rating (purple nutsedge; [2]): 2
Plant response rating, Nutsedge (purple nutsedge; [3]): 2
Nutsedge plant response rating (purple nutsedge; [4]): 0
Nutsedge plant response rating (purple nutsedge; [5]): 0
Plant response rating, Nutsedge (purple nutsedge; [6]): 2
